In ChEMBL document CHEMBL6153118, “Structure Optimization of Natural Product Catalpol to Obtain Novel and Potent Analogs against Heart Failure” (J Med Chem, 2025):
Calls of active or inactive are those of the source. No cut-off for these calls is given here.

Assays:
H9c2 [1] = assay: Cytoprotective activity against OGD-induced myocardial ischemic injury in rat H9c2 cells assessed as cell viability at 5 uM preincubated for 12 hrs followed by exposure to OGD condition for 3 hrs by CCK8 assay (reference value: 49.23 to 50.05 %); type: functional; details: time 15 hrs, read-out: Activity
H9c2 [2] = assay: Cytoprotective activity against OGD-induced myocardial ischemic injury in rat H9c2 cells assessed as cell viability at 50 uM preincubated for 12 hrs followed by exposure to OGD condition for 3 hrs by CCK8 assay (reference value: 49.23 to 50.05 %); type: functional; details: time 15 hrs, read-out: Activity
H9c2 [3] = assay: Cytoprotective activity against OGD-induced myocardial ischemic injury in rat H9c2 cells assessed as decrease in cell death at 5 to 50 uM preincubated for 12 hrs followed by exposure to OGD condition for 3 hrs by crystal violet staining based analysis; type: functional; details: dose 5-50 µM, time 15.0 hrs
Cardiac muscle cell [4] = assay: Cytoprotective activity against OGD-induced myocardial ischemic injury in neonatal rat primary cardiomyocytes assessed as decrease in cellular damage at 1 uM preincubated for 12 hrs followed by exposure to OGD condition for 3 hrs; type: functional, cell-based; details: time 15.0 hrs
Cardiac muscle cell [5] = assay: Cytoprotective activity against OGD-induced myocardial ischemic injury in neonatal rat primary cardiomyocytes assessed as decrease in cellular damage preincubated for 12 hrs followed by exposure to OGD condition for 3 hrs; type: functional, cell-based; details: time 15.0 hrs
H9c2 [6] = assay: Cytoprotective activity against OGD-induced myocardial ischemic injury in rat H9c2 cells assessed as decrease in LDH level at 5 to 50 uM preincubated for 12 hrs followed by exposure to OGD condition for 3 hrs by UV absorption analysis; type: functional, cell-based; details: dose 5-50 µM, time 15.0 hrs
H9c2 [7] = assay: Cytoprotective activity against OGD-induced myocardial ischemic injury in rat H9c2 cells assessed as decrease in ROS level at 5 to 50 uM preincubated for 12 hrs followed by exposure to OGD condition for 3 hrs by DCFH-DA probe based analysis; type: functional, cell-based; details: dose 5-50 µM, time 15.0 hrs
Mus musculus [8] = assay: Cardioprotective activity in ISO-induced heart failure C57BL/6J mouse assessed as […] in ejection fraction in heart at 20 mg/kg/day, po for 14 days by echocardiography; type: functional, organism-based; details: time 14.0 day
Mus musculus [9] = assay: Cardioprotective activity in ISO-induced heart failure C57BL/6J mouse assessed as […] in fractional shortening in heart at 20 mg/kg/day, po for 14 days by echocardiography; type: functional, organism-based; details: time 14.0 day
Mus musculus [10] = assay: Inhibition of cardiomyocyte hypertrophy in ISO-induced heart failure C57BL/6J mouse at 20 mg/kg/day, po for 14 days; type: functional, organism-based; details: time 14.0 day
H9c2 [11] = assay: Cytoprotective activity against OGD-induced myocardial ischemic injury in rat H9c2 cells assessed as cell viability at 100 uM preincubated for 12 hrs followed by exposure to OGD condition for 3 hrs by CCK8 assay (reference value: 49.23 to 50.05 %); type: functional; details: time 15 hrs, read-out: Activity
[12] = Metabolic stability in human liver microsomes assessed as intrinsic clearance measured for 5 to 60 mins in presence of NADPH by LC-MS/MS analysis; type: ADME, Microsome; details: time 5-60 min, read-out: CLH
[13] = Metabolic stability in mouse liver microsomes assessed as half life measured for 5 to 60 mins in presence of NADPH by LC-MS/MS analysis; type: ADME, Microsome; details: time 5-60 min
[14] = Metabolic stability in mouse liver microsomes assessed as intrinsic clearance measured for 5 to 60 mins in presence of NADPH by LC-MS/MS analysis; type: ADME, Microsome; details: time 5-60 min, read-out: CLH
Mus musculus [15] = assay: Cardioprotective activity in ISO-induced heart failure C57BL/6J mouse assessed as ejection fraction in heart at 20 mg/kg/day, po for 14 days by echocardiography (reference value: 49.55 +/- 2.41 %); type: functional; details: time 14 day
Mus musculus [16] = assay: Cardioprotective activity in ISO-induced heart failure C57BL/6J mouse assessed as fractional shortening in heart at 20 mg/kg/day, po for 14 days by echocardiography (reference value: 24.49 +/- 1.49 %); type: functional; details: time 14 day
Mus musculus [17] = assay: Cardioprotective activity in ISO-induced heart failure C57BL/6J mouse assessed as ejection fraction in heart at 5 mg/kg/day, po for 14 days by echocardiography (reference value: 49.55 +/- 2.41 %); type: functional; details: time 14 day
Mus musculus [18] = assay: Cardioprotective activity in ISO-induced heart failure C57BL/6J mouse assessed as fractional shortening in heart at 5 mg/kg/day, po for 14 days by echocardiography (reference value: 24.49 +/- 1.49 %); type: functional; details: time 14 day
Mus musculus [19] = assay: Improvement in motor ability in ISO-induced heart failure C57BL/6J mouse assessed as increase in grip strength at 5 to 20 mg/kg/day, po for 14 days; type: functional, organism-based; details: dose 5-20 mg/kg/day, time 14.0 day
Mus musculus [20] = assay: Improvement in motor ability in ISO-induced heart failure C57BL/6J mouse assessed as increase in time of remote motion with rotarod at 5 to 20 mg/kg/day, po for 14 days; type: functional, organism-based; details: dose 5-20 mg/kg/day, time 14.0 day
Mus musculus [21] = assay: Inhibition of cardiomyocyte hypertrophy in ISO-induced heart failure C57BL/6J mouse at 5 to 20 mg/kg/day, po for 14 days; type: functional, organism-based; details: dose 5-20 mg/kg/day, time 14.0 day
Mus musculus [22] = assay: Inhibition of cardiac fibrosis in ISO-induced heart failure C57BL/6J mouse at 5 to 20 mg/kg/day, po for 14 days; type: functional, organism-based; details: dose 5-20 mg/kg/day, time 14.0 day

SMILES | viability at 5 µM (H9c2 [1]) | viability at 50 µM (H9c2 [2]) | also measured
OC[C@H]1O[C@@H](O[C@@H]2OC=C[C@H]3[C@H](O)[C@@H]4O[C@]4(COc4ccccc4)[C@@H]23)[C@H](O)[C@@H](O)[C@@H]1O | 59.1% | 60.5% | 
OC[C@H]1O[C@@H](O[C@@H]2OC=C[C@H]3[C@H](O)[C@@H]4O[C@]4(COc4ccc(-c5ccccc5)cc4)[C@@H]23)[C@H](O)[C@@H](O)[C@@H]1O | 60% | 53.2% | 
OC[C@H]1O[C@@H](O[C@@H]2OC=C[C@H]3[C@H](O)[C@@H]4O[C@]4(COc4cccc5c4CCCC5)[C@@H]23)[C@H](O)[C@@H](O)[C@@H]1O | 54.4% | 55.5% | 
O=C(NC[C@]12O[C@H]1[C@@H](O)[C@@H]1C=CO[C@@H](O[C@@H]3O[C@H](CO)[C@@H](O)[C@H](O)[C@H]3O)[C@@H]12)c1cccnc1 | 58.2% | 59.6% | 
OC[C@H]1O[C@@H](O[C@@H]2OC=C[C@H]3[C@H](O)[C@@H]4O[C@]4(COc4cccc5ccccc45)[C@@H]23)[C@H](O)[C@@H](O)[C@@H]1O | 55.5% | 58.8% | 
COc1ccc(CC(=O)NC[C@]23O[C@H]2[C@@H](O)[C@@H]2C=CO[C@@H](O[C@@H]4O[C@H](CO)[C@@H](O)[C@H](O)[C@H]4O)[C@@H]23)cc1OC | 60.9% | 59.4% | 
O=C(NC[C@]12O[C@H]1[C@@H](O)[C@@H]1C=CO[C@@H](O[C@@H]3O[C@H](CO)[C@@H](O)[C@H](O)[C@H]3O)[C@@H]12)c1ccco1 | 58.8% | 55.6% | 
O=C(NC[C@]12O[C@H]1[C@@H](O)[C@@H]1C=CO[C@@H](O[C@@H]3O[C@H](CO)[C@@H](O)[C@H](O)[C@H]3O)[C@@H]12)c1cncnc1 | 58% | 57.5% | 
COc1cc(OC[C@]23O[C@H]2[C@@H](O)[C@@H]2C=CO[C@@H](O[C@@H]4O[C@H](CO)[C@@H](O)[C@H](O)[C@H]4O)[C@@H]23)cc(OC)c1OC | 63.9% | 55.1% | 
OC[C@H]1O[C@@H](O[C@@H]2OC=C[C@H]3[C@H](O)[C@@H]4O[C@]4(COc4ccc5ccoc5c4)[C@@H]23)[C@H](O)[C@@H](O)[C@@H]1O | 56.7% | 57% | 
O=C(NC[C@]12O[C@H]1[C@@H](O)[C@@H]1C=CO[C@@H](O[C@@H]3O[C@H](CO)[C@@H](O)[C@H](O)[C@H]3O)[C@@H]12)c1ccccc1 | 63.6% | 70% | Activity (H9c2 [3]): Active; Exhibited Superior Protective Efficacy Than Catal-Pol; Activity (Cardiac muscle cell [4]): Active
OC[C@H]1O[C@@H](O[C@@H]2OC=C[C@H]3[C@H](O)[C@@H]4O[C@]4(CO)[C@@H]23)[C@H](O)[C@@H](O)[C@@H]1O [CATALPOL] | 50.6% | 50.7% | Activity (Cardiac muscle cell [5]): Active; Activity (H9c2 [6]): Active; Activity (H9c2 [7]): Active; Activity (Mus musculus [8]): Active; Activity (Mus musculus [9]): Active; inhibition (Mus musculus [10]): Active
O=C(NC[C@]12O[C@H]1[C@@H](O)[C@@H]1C=CO[C@@H](O[C@@H]3O[C@H](CO)[C@@H](O)[C@H](O)[C@H]3O)[C@@H]12)c1ccc2occc2c1 | 59.1% | 58% | 
COc1ccc(C(=O)NC[C@]23O[C@H]2[C@@H](O)[C@@H]2C=CO[C@@H](O[C@@H]4O[C@H](CO)[C@@H](O)[C@H](O)[C@H]4O)[C@@H]23)cc1OC | 62.1% | 57.8% | 
O=C(/C=C/c1ccccc1)NC[C@]12O[C@H]1[C@@H](O)[C@@H]1C=CO[C@@H](O[C@@H]3O[C@H](CO)[C@@H](O)[C@H](O)[C@H]3O)[C@@H]12 | 57.9% | 61.5% | 
O=C(NCCO[N+](=O)[O-])c1cccnc1 [NICORANDIL] |  |  | viability at 100 µM (H9c2 [11]): 58.6%
O=C(NC[C@]12O[C@H]1[C@@H](O)[C@@H]1C=CO[C@@H](O[C@@H]3O[C@H](CO)[C@@H](O)[C@H](O)[C@H]3O)[C@@H]12)c1cccs1 | 54.1% | 60.4% | 
OC[C@H]1O[C@@H](O[C@@H]2OC=C[C@H]3[C@H](O)[C@@H]4O[C@]4(COc4ccc(C5CCCCC5)cc4)[C@@H]23)[C@H](O)[C@@H](O)[C@@H]1O | 60.9% | 56.6% | 
COc1ccc(/C=C/C(=O)NC[C@]23O[C@H]2[C@@H](O)[C@@H]2C=CO[C@@H](O[C@@H]4O[C@H](CO)[C@@H](O)[C@H](O)[C@H]4O)[C@@H]23)cc1OC | 56.6% | 56.7% | 
O=C(O)Cc1ccccc1Nc1c(Cl)cccc1Cl [DICLOFENAC] |  |  | CLint scaled [12]: 202 mL/min/kg; half-life [13]: 66.2 min; CLint scaled [14]: 82.9 mL/min/kg
OC[C@H]1O[C@@H](O[C@@H]2OC=C[C@H]3[C@H](O)[C@@H]4O[C@]4(COc4ccc(F)cc4)[C@@H]23)[C@H](O)[C@@H](O)[C@@H]1O | 61.7% | 64.6% | 
O=C(NC[C@]12O[C@H]1[C@@H](O)[C@@H]1C=CO[C@@H](O[C@@H]3O[C@H](CO)[C@@H](O)[C@H](O)[C@H]3O)[C@@H]12)C1CCCCC1 | 60% | 61.3% | 
CC(C)(C)c1ccc(C(=O)NC[C@]23O[C@H]2[C@@H](O)[C@@H]2C=CO[C@@H](O[C@@H]4O[C@H](CO)[C@@H](O)[C@H](O)[C@H]4O)[C@@H]23)cc1 | 60.7% | 70.9% | Activity (Mus musculus [15]): 53.73%; Activity (H9c2 [3]): Active; Exhibited Superior Protective Efficacy Than Catal-Pol; Activity (Cardiac muscle cell [4]): Active; Activity (H9c2 [6]): Active; Activity (H9c2 [7]): Active; Activity (Mus musculus [16]): 27.5%; Activity (Mus musculus [17]): 55.41%; Activity (Mus musculus [18]): 28.23%; Activity (Mus musculus [19]): Active; Activity (Mus musculus [20]): Active; inhibition (Mus musculus [21]): inactive; inhibition (Mus musculus [22]): Active
OC[C@H]1O[C@@H](O[C@@H]2OC=C[C@H]3[C@H](O)[C@@H]4O[C@]4(COc4ccc5c(c4)OCO5)[C@@H]23)[C@H](O)[C@@H](O)[C@@H]1O | 59.6% | 60.7% | 
OC[C@H]1O[C@@H](O[C@@H]2OC=C[C@H]3[C@H](O)[C@@H]4O[C@]4(COc4ccc(C5CCCC5)cc4)[C@@H]23)[C@H](O)[C@@H](O)[C@@H]1O | 64.5% | 60.8% | 
O=C(NC[C@]12O[C@H]1[C@@H](O)[C@@H]1C=CO[C@@H](O[C@@H]3O[C@H](CO)[C@@H](O)[C@H](O)[C@H]3O)[C@@H]12)c1ccncc1 | 54.2% | 57.5% | 
OC[C@H]1O[C@@H](O[C@@H]2OC=C[C@H]3[C@H](O)[C@@H]4O[C@]4(COc4cc(C(F)(F)F)cc(C(F)(F)F)c4)[C@@H]23)[C@H](O)[C@@H](O)[C@@H]1O | 56.1% | 50.1% | 
COc1ccc(OC[C@]23O[C@H]2[C@@H](O)[C@@H]2C=CO[C@@H](O[C@@H]4O[C@H](CO)[C@@H](O)[C@H](O)[C@H]4O)[C@@H]23)cc1 | 62.5% | 57.5% | 
